Experimental data as given in paper PMC5641919, “Structural basis for antibacterial peptide self‐immunity by the bacterial ABC transporter McjD” (The EMBO Journal, 2017).

Biological target: T1, McjD (Escherichia coli, UniProt Q9X2W0)
T1 construct: reconstituted in E. coli polar lipid proteoliposomes for transport; plasmid-encoded mcjABCD operon
Experiment: ATP-dependent Hoechst fluorescence uptake in proteoliposomes
Type: biochemical
Conditions: 0.1 μM Hoechst, 50 mM Tris pH 8, 50 mM KCl, E. coli polar lipids

T1 sequence (Q9X2W0 whole entry): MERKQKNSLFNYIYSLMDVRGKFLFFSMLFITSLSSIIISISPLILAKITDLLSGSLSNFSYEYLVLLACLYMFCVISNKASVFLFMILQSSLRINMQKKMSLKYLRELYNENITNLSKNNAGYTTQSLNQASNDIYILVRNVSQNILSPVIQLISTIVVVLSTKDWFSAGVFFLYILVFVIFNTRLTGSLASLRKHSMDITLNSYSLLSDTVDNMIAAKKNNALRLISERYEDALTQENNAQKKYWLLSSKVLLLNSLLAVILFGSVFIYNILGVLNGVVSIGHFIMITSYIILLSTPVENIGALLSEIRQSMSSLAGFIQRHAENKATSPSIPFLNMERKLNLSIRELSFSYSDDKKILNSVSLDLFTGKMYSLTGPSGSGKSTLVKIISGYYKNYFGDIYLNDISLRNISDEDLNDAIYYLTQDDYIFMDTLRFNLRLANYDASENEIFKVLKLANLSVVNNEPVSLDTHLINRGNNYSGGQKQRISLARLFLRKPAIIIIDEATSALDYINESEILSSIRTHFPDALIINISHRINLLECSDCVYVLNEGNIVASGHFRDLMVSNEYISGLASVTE

SMILES: CCOc1ccc(-c2nc3ccc(-c4nc5ccc(N6CCN(C)CC6)cc5[nH]4)cc3[nH]2)cc1 [Hoechst 33342]
- ATP-dependent Hoechst fluorescence uptake in proteoliposomes: McjD mediates the ATP‐dependent uptake of Hoechst in proteoliposomes (black line)
